In patent US5563155A, “Individual stereosiomers of 7-[3-(aminoalkyl)-1-pyrrolidinyl]-quinolones and naphthyridones as antibacterial agents” (Warner-Lambert Company, priority 1995, dated 1996):
Values after ≈ are worked out from the molar mass of the structure shown.

Columns and labels:
Assay type in all cases: cell-based
Staph. aureus UC-76 = experiment: in vitro antibacterial activity, microtitration dilution (MIC), Staph. aureus UC-76; settings: Staphylococcus aureus, UC76, read-out: minimum inhibiting concentration (MIC)
Excerpt: (§1) The in vitro antibacterial activity, is obtained by the microtitration dilution method as described in Heifetz, et al., Antimicr. Agents & Chemother., 6, 124 (1974), which is incorporated herein by reference.
(§2) By use of the above methods, the following minimum inhibiting concentration values (MICs in μg/mL), PD50 's in mg/kg, no effect phototoxicity dose in mg/kg and the cytotoxicity IC50 in μg/mL were obtained for representative enantiomers of the invention and compounds of the prior art as shown in the table.

Esch. coli Vogel = experiment: in vitro antibacterial activity, microtitration dilution (MIC), Esch. coli Vogel; settings: Escherichia coli, read-out: minimum inhibiting concentration (MIC)
Excerpt: as §1, §2

Strep. pheumoniae SV-1 = experiment: in vitro antibacterial activity, microtitration dilution (MIC), Strep. pneumoniae SV-1; settings: Streptococcus pneumoniae, SV1, read-out: minimum inhibiting concentration (MIC)
Excerpt: as §1, §2

Strep. pyogenes C-203 = experiment: in vitro antibacterial activity, microtitration dilution (MIC), Strep. pyogenes C-203; settings: Streptococcus pyogenes, C203, read-out: minimum inhibiting concentration (MIC)
Excerpt: as §1, §2

Klebs. pneumoniae MGH-2 = experiment: in vitro antibacterial activity, microtitration dilution (MIC), Klebs. pneumoniae MGH-2; settings: Klebsiella pneumoniae, MGH2, read-out: minimum inhibiting concentration (MIC)
Excerpt: as §1, §2

Ent. cloacae MA2646 = experiment: in vitro antibacterial activity, microtitration dilution (MIC), Ent. cloacae MA2646; settings: Enterobacter cloacae, read-out: minimum inhibiting concentration (MIC)
Excerpt: as §1, §2

Strep. faecalis MGH-2 = experiment: in vitro antibacterial activity, microtitration dilution (MIC), Strep. faecalis MGH-2; settings: Enterococcus faecalis, MGH2, read-out: minimum inhibiting concentration (MIC)
Excerpt: as §1, §2

Prot. rettgeri M 1771 = experiment: in vitro antibacterial activity, microtitration dilution (MIC), Prot. rettgeri M 1771; settings: Providencia rettgeri, M1771, read-out: minimum inhibiting concentration (MIC)
Excerpt: as §1, §2

Staph. aureus H 228 = experiment: in vitro antibacterial activity, microtitration dilution (MIC), Staph. aureus H 228; settings: Staphylococcus aureus, H228, read-out: minimum inhibiting concentration (MIC)
Excerpt: as §1, §2

Pseud. aeruginosa UI-18 = experiment: in vitro antibacterial activity, microtitration dilution (MIC), Pseud. aeruginosa UI-18; settings: Pseudomonas aeruginosa, UI18, read-out: minimum inhibiting concentration (MIC)
Excerpt: as §1, §2

SMILES | MIC (Staph. aureus UC-76) [µg/mL] | MIC (Esch. coli Vogel) [µg/mL] | MIC (Strep. pheumoniae SV-1) [µg/mL] | MIC (Strep. pyogenes C-203) [µg/mL] | MIC (Klebs. pneumoniae MGH-2) [µg/mL] | MIC (Ent. cloacae MA2646) [µg/mL] | MIC (Strep. faecalis MGH-2) [µg/mL] | MIC (Prot. rettgeri M 1771) [µg/mL] | MIC (Staph. aureus H 228) [µg/mL] | MIC (Pseud. aeruginosa UI-18) [µg/mL]
CCN[C@H](C)[C@H]1CCN(c2c(F)cc3c(=O)c(C(=O)O)cn(C4CC4)c3c2OC)C1 [Example 19, 3S,1R-1-cyclopropyl-6-fluoro-7-[3-(1-N-ethylaminoethyl)1-pyrrolidinyl]-8-methoxy-1,4-dihydro-4-oxo-3-quinolinecarboxylic acid] | 0.05 (≈ 0.12 µM) | 0.4 (≈ 0.958 µM) | 0.013 (≈ 0.0311 µM) | 0.025 (≈ 0.0599 µM) | 0.8 (≈ 1.92 µM) | 0.4 (≈ 0.958 µM) | 0.1 (≈ 0.24 µM) | 1.6 (≈ 3.83 µM) | 0.1 (≈ 0.24 µM) | 6.3 (≈ 15.1 µM)
CN[C@H](C)[C@H]1CCN(c2nc3c(cc2F)c(=O)c(C(=O)O)cn3C2CC2)C1 [Example 23, 3S,1R-1-cyclopropyl-6-fluoro-7-[3-(1-N-methylaminoethyl)-1-pyrrolidinyl]-1,4-dihydro-4-oxo-1,8-naphthyridine-3-carboxylic acid] | 0.05 (≈ 0.134 µM) | 0.1 (≈ 0.267 µM) | 0.1 (≈ 0.267 µM) | 0.1 (≈ 0.267 µM) | 0.2 (≈ 0.534 µM) | 0.1 (≈ 0.267 µM) | 0.2 (≈ 0.534 µM) | 0.8 (≈ 2.14 µM) | 0.2 (≈ 0.534 µM) | 1.6 (≈ 4.27 µM)
CCN[C@H](C)[C@@H]1CCN(c2nc3c(cc2F)c(=O)c(C(=O)O)cn3-c2ccc(F)cc2F)C1 [Example 51, 3R,1R-7-[3-(1-N-ethylaminoethyl)-1-pyrrolidinyl]-1-(2,4-difluorophenyl)-6-fluoro-1,4-dihydro-4-oxo-1,8-naphthyridine-3-carboxylic acid] | 0.05 (≈ 0.109 µM) | 0.8 (≈ 1.74 µM) | 0.2 (≈ 0.434 µM) | 0.2 (≈ 0.434 µM) | 1.6 (≈ 3.47 µM) | 0.8 (≈ 1.74 µM) | 0.4 (≈ 0.869 µM) | 3.1 (≈ 6.73 µM) | 0.2 (≈ 0.434 µM) | > 3.1
CN[C@H](C)[C@@H]1CCN(c2cc3c(c(C)c2F)c(=O)c(C(=O)O)cn3-c2ccc(F)cc2F)C1 [Example 63] | 0.05 (≈ 0.109 µM) | 0.4 (≈ 0.871 µM) | 0.2 (≈ 0.435 µM) | 0.2 (≈ 0.435 µM) | 0.4 (≈ 0.871 µM) | 0.4 (≈ 0.871 µM) | 0.2 (≈ 0.435 µM) | 0.8 (≈ 1.74 µM) | 0.1 (≈ 0.218 µM) | 3.1 (≈ 6.75 µM)

Further lines, results first:

MIC (Staph. aureus UC-76) [µg/mL] | MIC (Esch. coli Vogel) [µg/mL] | MIC (Strep. pheumoniae SV-1) [µg/mL] | MIC (Strep. pyogenes C-203) [µg/mL] | MIC (Klebs. pneumoniae MGH-2) [µg/mL] | MIC (Ent. cloacae MA2646) [µg/mL] | MIC (Strep. faecalis MGH-2) [µg/mL] | MIC (Prot. rettgeri M 1771) [µg/mL] | MIC (Staph. aureus H 228) [µg/mL] | MIC (Pseud. aeruginosa UI-18) [µg/mL] | SMILES
0.05 (≈ 0.123 µM) | 0.2 (≈ 0.492 µM) | 0.2 (≈ 0.492 µM) | 0.2 (≈ 0.492 µM) | 0.8 (≈ 1.97 µM) | 0.2 (≈ 0.492 µM) | 0.2 (≈ 0.492 µM) | 0.8 (≈ 1.97 µM) | 0.1 (≈ 0.246 µM) | 3.1 (≈ 7.63 µM) | CN[C@@H](C)[C@H]1CCN(c2c(F)c(N)c3c(=O)c(C(=O)O)cn(C4CC4)c3c2F)C1 [Example 35, 3S,1S-5-amino-1-cyclopropyl-6,8-difluoro-7-[3-(1-N-methylaminoethyl)-1-pyrrolidinyl]-1,4-dihydro-4-oxo-3-quinolinecarboxylic acid]
0.006 (≈ 0.0143 µM) | 0.1 (≈ 0.239 µM) | 0.006 (≈ 0.0143 µM) | 0.006 (≈ 0.0143 µM) | 0.2 (≈ 0.478 µM) | 0.2 (≈ 0.478 µM) | 0.025 (≈ 0.0597 µM) | 0.4 (≈ 0.956 µM) | 0.013 (≈ 0.0311 µM) | 1.6 (≈ 3.82 µM) | CN[C@@H](C)[C@@H]1CCN(c2c(F)c(N)c3c(=O)c(C(=O)O)cn(C4CC4)c3c2OC)C1 [Example 56, 3R,1S-5-amino-1-cyclopropyl-6-fluoro-1,4-dihydro-8-methoxy-7-[3-(1-N-methylaminoethyl)-1-pyrrolidinyl]-4-oxo-3-quinolinecarboxylic acid]
≤ 0.003 | 0.025 (≈ 0.0642 µM) | ≤ 0.003 | ≤ 0.003 | 0.05 (≈ 0.128 µM) | 0.05 (≈ 0.128 µM) | 0.006 (≈ 0.0154 µM) | 0.05 (≈ 0.128 µM) | 0.006 (≈ 0.0154 µM) | 0.4 (≈ 1.03 µM) | COc1c(N2CC[C@@H]([C@H](C)N)C2)c(F)cc2c(=O)c(C(=O)O)cn(C3CC3)c12 [Example 44, 3R,1S-7-[3-(1-aminoethyl)-1-pyrrolidinyl]-1-cyclopropyl-6-fluoro-1,4-dihydro-8-methoxy-4-oxo-3-quinolinecarboxylic acid]
0.003 (≈ 0.00742 µM) | 0.05 (≈ 0.124 µM) | 0.003 (≈ 0.00742 µM) | 0.003 (≈ 0.00742 µM) | 0.1 (≈ 0.247 µM) | 0.05 (≈ 0.124 µM) | 0.006 (≈ 0.0148 µM) | 0.1 (≈ 0.247 µM) | 0.006 (≈ 0.0148 µM) | 0.8 (≈ 1.98 µM) | COc1c(N2CC[C@@H]([C@H](C)N)C2)c(F)c(N)c2c(=O)c(C(=O)O)cn(C3CC3)c12 [Example 59, 3R,1S-5-amino-7-[3-(1-aminoethyl)-1-pyrrolidinyl]-1-cyclopropyl-6-fluoro-1,4-dihydro-8-methoxy-4-oxo-3-quinolinecarboxylic acid]
